Holding throughout (experiment): Kinase selectivity, scanMAX Kinase assay panel (DiscoverX), % control at 1 uM
Common to all, as to format: binding

Experiment [1] concerns the target T1, scanMAX Kinase assay panel (Homo sapiens, UniProt P21802).
T1 construct: purchased DiscoverX
Conditions: FGFR2; 1 uM; read-out: Percent Control (%). How it is done:
(§1) The following experiment was performed to evaluate the inhibitory activity of the compound of the present invention on more enzymes.
(§2) Particularly, among the compounds of the present invention, the compounds of Example 1, Example 12 and Example 78 were selected and assigned to DiscoverX to measure the kinase selectivity. The experiment was performed by using scanMAX™ Kinase assay panel.
(§3) At this time, the concentration of the drug to be treated to the enzyme was adjusted to 1 uM in DMSO, and the control percentage (% control) was determined according to the following Equation 1. [Example Compound−Positive Control/Negative Control−Positive Control]×100 [Equation 1]
(§4) The enzyme selectivity of the compound of the present invention was judged to be active for the enzyme if the % control was <35 (i.e. less than 35%) for each enzyme.

For experiment [2], the target named is T2, scanMAX Kinase assay panel (Homo sapiens, UniProt P42336, E545K).
T2 construct: purchased DiscoverX
T2 sequence (P42336 whole entry E545K): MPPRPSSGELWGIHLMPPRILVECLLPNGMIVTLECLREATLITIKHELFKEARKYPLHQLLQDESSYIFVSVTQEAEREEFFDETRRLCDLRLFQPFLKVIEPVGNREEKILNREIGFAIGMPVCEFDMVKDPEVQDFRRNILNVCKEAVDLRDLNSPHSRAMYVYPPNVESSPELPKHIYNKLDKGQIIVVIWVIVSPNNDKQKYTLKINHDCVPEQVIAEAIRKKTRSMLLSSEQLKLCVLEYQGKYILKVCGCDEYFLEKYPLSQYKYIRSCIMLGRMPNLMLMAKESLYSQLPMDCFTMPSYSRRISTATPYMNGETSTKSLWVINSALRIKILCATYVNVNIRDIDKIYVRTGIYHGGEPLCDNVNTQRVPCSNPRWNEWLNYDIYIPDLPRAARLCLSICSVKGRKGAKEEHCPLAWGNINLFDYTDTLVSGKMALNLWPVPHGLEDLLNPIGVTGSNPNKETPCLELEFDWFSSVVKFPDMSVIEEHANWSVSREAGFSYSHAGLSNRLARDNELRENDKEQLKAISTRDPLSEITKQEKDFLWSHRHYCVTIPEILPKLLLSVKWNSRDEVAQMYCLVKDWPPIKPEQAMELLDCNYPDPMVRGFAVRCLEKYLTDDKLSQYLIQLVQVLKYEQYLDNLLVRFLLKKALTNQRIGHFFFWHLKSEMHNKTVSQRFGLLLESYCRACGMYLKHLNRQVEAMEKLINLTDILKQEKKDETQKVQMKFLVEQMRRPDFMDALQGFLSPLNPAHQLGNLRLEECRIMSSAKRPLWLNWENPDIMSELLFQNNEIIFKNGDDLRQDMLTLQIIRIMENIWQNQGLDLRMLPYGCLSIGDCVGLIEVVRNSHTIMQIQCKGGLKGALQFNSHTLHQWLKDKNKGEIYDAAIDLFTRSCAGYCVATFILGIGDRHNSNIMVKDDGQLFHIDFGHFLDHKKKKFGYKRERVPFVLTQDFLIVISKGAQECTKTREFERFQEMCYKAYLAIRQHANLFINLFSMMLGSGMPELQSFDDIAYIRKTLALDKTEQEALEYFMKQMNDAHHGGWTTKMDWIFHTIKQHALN
Particulars: PIK3CA (E545K); 1 uM; read-out: Percent Control (%). How it is done: as §1, §2, §3, §4

Experiment [3] concerns the target T3, scanMAX Kinase assay panel (Homo sapiens, UniProt P21860).
T3 construct: purchased DiscoverX
Conditions: ERBB3; 1 uM; read-out: Percent Control (%). How it is done:
as §1, §2, §3, §4

In experiment [4] the target is T4, scanMAX Kinase assay panel (Homo sapiens, UniProt Q13873).
T4 construct: purchased DiscoverX
T4 sequence (Q13873 27-1038): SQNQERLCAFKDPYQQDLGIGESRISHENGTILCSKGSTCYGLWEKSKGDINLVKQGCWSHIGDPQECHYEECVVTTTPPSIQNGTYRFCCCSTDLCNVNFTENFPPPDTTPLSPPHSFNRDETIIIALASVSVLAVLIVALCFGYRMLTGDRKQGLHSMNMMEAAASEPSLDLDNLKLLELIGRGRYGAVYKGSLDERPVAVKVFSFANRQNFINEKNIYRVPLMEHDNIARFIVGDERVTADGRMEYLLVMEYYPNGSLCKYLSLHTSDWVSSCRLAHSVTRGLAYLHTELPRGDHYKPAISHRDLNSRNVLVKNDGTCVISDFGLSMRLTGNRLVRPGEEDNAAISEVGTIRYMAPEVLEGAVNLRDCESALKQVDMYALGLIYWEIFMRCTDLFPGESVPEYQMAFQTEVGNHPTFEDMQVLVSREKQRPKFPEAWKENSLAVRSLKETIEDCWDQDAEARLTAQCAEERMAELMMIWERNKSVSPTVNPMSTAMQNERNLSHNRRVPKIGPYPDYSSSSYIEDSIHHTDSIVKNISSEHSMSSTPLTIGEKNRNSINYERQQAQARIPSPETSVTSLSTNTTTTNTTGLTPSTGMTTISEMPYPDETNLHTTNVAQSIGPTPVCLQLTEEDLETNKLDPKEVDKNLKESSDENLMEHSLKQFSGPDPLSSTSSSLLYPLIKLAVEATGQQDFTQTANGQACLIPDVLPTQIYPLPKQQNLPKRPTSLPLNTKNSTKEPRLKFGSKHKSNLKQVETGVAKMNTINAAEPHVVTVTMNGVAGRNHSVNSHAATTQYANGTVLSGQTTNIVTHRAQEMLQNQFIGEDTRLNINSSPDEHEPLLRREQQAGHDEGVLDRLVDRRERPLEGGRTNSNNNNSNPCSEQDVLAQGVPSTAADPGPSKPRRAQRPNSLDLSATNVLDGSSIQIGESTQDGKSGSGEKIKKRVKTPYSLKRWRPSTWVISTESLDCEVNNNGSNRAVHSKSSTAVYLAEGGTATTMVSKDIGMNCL
Conditions: BMPR2; 1 uM; read-out: Percent Control (%). The method, then:
as §1, §2, §3, §4

Experiment [5] deals with T5, scanMAX Kinase assay panel (Homo sapiens, UniProt P36888, D835Y).
T5 construct: purchased DiscoverX
T5 sequence (P36888 27-993 D835Y): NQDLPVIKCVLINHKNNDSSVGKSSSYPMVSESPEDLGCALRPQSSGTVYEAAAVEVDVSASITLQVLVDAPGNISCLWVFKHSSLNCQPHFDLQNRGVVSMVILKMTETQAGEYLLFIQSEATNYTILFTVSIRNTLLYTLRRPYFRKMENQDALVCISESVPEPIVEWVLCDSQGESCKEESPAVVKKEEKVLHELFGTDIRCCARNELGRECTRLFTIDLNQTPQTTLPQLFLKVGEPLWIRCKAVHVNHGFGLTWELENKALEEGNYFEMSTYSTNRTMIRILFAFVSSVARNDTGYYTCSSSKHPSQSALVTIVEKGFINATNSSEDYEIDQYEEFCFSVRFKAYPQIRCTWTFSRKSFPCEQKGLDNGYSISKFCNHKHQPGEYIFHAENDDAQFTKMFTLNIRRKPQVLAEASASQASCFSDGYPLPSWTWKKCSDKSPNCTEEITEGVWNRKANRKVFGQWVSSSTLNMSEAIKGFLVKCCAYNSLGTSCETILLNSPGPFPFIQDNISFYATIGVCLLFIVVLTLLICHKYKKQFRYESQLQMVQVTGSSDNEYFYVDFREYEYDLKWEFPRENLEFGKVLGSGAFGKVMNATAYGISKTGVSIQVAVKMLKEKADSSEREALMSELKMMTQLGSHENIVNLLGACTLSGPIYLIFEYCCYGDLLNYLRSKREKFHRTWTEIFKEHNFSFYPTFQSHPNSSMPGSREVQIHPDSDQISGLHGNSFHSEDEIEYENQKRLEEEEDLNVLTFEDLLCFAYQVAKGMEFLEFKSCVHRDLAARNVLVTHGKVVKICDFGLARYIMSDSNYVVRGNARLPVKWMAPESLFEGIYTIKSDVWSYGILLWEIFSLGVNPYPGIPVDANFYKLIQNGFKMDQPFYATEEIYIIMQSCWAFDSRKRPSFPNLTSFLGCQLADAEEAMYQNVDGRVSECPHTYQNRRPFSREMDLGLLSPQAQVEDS
Conditions: FLT3 (D835Y); 1 uM; read-out: Percent Control (%). The method, then: as §1, §2, §3, §4

T3 sequence (P21860 20-1342): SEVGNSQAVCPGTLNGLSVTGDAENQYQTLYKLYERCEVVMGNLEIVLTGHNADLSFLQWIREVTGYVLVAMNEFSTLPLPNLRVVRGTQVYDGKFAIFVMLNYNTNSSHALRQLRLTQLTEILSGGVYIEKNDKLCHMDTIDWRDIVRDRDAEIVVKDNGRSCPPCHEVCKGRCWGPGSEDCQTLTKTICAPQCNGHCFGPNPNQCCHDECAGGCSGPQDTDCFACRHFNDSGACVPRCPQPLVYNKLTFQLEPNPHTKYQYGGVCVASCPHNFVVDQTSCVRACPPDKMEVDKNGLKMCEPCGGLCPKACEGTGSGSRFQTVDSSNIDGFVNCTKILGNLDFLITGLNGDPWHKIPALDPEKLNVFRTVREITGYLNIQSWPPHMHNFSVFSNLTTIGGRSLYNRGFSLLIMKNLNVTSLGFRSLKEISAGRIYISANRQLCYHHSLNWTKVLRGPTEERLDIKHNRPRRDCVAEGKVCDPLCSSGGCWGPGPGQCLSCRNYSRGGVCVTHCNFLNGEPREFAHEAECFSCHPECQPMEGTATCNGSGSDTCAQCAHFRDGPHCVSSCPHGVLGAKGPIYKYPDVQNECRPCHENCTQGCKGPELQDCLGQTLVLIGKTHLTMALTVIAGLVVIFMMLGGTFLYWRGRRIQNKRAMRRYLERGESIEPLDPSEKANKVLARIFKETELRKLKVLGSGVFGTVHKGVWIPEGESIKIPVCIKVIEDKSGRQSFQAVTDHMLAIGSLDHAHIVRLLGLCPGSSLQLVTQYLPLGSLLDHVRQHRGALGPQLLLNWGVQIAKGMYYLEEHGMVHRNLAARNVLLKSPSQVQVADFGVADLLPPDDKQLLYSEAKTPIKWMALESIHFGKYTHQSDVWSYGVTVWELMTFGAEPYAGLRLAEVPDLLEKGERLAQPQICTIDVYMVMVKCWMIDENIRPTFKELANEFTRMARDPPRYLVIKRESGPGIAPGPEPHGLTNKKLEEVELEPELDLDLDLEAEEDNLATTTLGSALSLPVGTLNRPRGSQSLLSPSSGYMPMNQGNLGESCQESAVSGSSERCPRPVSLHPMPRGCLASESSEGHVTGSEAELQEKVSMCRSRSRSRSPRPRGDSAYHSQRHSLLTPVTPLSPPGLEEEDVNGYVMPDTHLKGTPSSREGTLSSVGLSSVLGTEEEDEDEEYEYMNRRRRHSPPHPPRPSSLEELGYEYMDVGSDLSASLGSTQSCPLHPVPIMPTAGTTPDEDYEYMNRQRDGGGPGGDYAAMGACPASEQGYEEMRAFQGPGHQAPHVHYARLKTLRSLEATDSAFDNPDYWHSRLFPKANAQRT
T1 sequence (P21802 22-821): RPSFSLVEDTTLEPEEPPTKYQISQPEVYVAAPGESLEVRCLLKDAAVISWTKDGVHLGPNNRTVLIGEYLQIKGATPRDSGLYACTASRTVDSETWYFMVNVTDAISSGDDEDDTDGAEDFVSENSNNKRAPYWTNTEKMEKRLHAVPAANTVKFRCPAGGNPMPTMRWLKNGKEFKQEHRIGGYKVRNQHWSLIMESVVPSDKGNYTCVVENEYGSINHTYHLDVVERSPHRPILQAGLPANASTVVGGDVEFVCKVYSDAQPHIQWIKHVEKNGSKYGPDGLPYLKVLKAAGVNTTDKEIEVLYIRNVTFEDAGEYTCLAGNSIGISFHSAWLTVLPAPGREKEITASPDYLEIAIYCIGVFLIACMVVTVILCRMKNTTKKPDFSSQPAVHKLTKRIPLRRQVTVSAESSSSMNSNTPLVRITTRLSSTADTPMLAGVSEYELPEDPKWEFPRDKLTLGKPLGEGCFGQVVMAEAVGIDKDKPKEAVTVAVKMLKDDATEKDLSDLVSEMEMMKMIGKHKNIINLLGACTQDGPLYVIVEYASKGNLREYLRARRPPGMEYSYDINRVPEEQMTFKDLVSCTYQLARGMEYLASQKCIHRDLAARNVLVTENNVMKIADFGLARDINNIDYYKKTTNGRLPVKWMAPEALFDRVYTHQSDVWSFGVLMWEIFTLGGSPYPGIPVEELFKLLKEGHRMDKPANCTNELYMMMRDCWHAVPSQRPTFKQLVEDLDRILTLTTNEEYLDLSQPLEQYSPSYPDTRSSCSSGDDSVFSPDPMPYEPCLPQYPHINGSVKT

As to `Cc1ccc(C(=O)Nc2ccc(CN3CCN(C)CC3)c(C(F)(F)F)c2)cc1C#Cc1cnc2c(Nc3cnn(C)c3)cccn12` [Example 1, 4-methyl-3-((8-((1-methyl-1H-pyrazol-4-yl)amino)imidazo[1,2-a]pyridin-3-yl)ethynyl)-N-(4-((4-methylpiperazin-1-yl)methyl)-3-(trifluoromethyl)phenyl)benzamide], the remaining binding at 1 µM in experiment [1] came out at 2%; in experiment [2] it was 81%; in experiment [3], 86%; in experiment [4] it was 82%; in experiment [5], 5%.

For `Cc1ccc(NC(=O)C2(C(=O)Nc3ccc(F)cc3)CC2)cc1C#Cc1cnc2c(Nc3cnn(C(C)C)c3)cccn12` [Example 78], the remaining binding at 1 µM in experiment [1] came out at 100%; in experiment [2] it was 92%; in experiment [3] it was 99%; in experiment [4], 84%; in experiment [5] it was 79%.

Regarding `Cc1cn(-c2cc(NC(=O)c3ccc(C)c(C#Cc4cnc5c(Nc6cnn(C)c6)cccn45)c3)cc(C(F)(F)F)c2)cn1` [Example 12, 4-methyl-N-(3-(4-methyl-1H-imidazol-1-yl)-5-(trifluoromethyl)phenyl)-3-((8-((1-methyl-1H-pyrazol-4-yl)amino)imidazo[1,2-a]pyridin-3-yl)ethynyl)benzamide], the remaining binding at 1 µM in experiment [1] is 11%; in experiment [2] it was 77%; in experiment [3], 98%; in experiment [4], 100%; in experiment [5] it was 14%.

Source of the values: patent publication US10870647B2, “Imidazopyridine derivative, method for preparing same, and pharmaceutical composition containing same as active ingredient for preventing or treating cancer” (DAEGU-GYEONGBUK MEDICAL INNOVATION FOUNDATION, priority 2016, dated 2020).
